The text below walks through data of PMC7933130 (Nature, 2021).

The assay has as its target NaCT (Homo sapiens, UniProt Q86YT5). As to the kind of experiment: cryo-EM structure at […] Å. It is filed as binding.

Chain of NaCT (Q86YT5 whole entry): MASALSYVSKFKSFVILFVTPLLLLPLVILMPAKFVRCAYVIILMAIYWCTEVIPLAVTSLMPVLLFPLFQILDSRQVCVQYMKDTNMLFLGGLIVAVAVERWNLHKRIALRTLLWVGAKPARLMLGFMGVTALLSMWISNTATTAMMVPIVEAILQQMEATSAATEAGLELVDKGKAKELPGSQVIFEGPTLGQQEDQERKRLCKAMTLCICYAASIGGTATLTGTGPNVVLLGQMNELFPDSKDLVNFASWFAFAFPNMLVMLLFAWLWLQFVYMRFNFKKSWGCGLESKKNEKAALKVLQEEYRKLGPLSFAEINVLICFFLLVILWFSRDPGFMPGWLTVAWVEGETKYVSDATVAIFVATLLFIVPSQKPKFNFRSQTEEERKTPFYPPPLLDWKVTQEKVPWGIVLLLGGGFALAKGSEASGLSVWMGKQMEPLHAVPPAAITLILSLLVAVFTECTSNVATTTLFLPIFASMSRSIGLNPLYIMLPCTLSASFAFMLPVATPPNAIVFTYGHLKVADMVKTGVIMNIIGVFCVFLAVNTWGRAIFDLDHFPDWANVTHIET

The Kd is the equilibrium constant for the complex coming apart. For the molecule `O=C(O)CC(O)(CC(=O)O)C(=O)O` [citrate], binding was characterised by a dissociation constant (Kd) of 148 ± 28 µM.
